Reference: patent publication US4224199A, “Somatostatin analogs having a substituted tryptophyl residue in position eight” (priority 1978, dated 1980)

System: rat anterior pituitary cells
Experiment: in vitro inhibition of growth hormone release from dispersed rat anterior pituitary cells (radioimmunoassay)
Type: cell-based
Settings: rat anterior pituitary cells 4 days in culture, incubated 5 hours at 37° C., potency from ED50 relative to somatostatin
Procedure: Meyers et al., Biochem. Biophys. Res. Commun., 74, 630(1977). In this method, the tetradecapeptides of this invention are shown to inhibit the release of radioimmunoassayable growth hormone in vitro from enzymatically dispersed rat anterior pituitary cells prepared as described by F. Labrie et al., Sixth Karolinska Symp. on Res. Meth. in Reprod. Endocrinol. (W. Dozfalusy, Ed.), pp 301-328(1973). Following four days in culture, the cells are washed and incubated for five hours at 37° C. in Dulbecco-modified Eagle's medium in the presence or absence of increasing concentrations of each tetradecapeptide analog. Growth hormone levels are determined by double antibody radioimmunoassay, method described by C. A. Birge et al., Endocrinol., 81, 195-204(1967), for rat growth hormone using the NIAMDD Rat GH RIA kit. The dose required for a 50% inhibition of growth hormone release (ED50) is calculated for each analog by the method of D. Rodbard, Endocrinol., 94, 1427-1437(1974). The potency of the tetradecapeptide analogs of this invention relative to somatostatin is illustrated in table I.

Compound	Growth Hormone Release-Inhibiting Activity, Relative to Somatostatin [%]
cyclic[3-14 disulfide] of L-alanyl-glycyl-L-cysteinyl-L-asparaginyl-L-lysyl-L-phenylalanyl-L-phenylalanyl-L-5-fluorotryptophyl-L-lysyl-L-threonyl-L-phenylalanyl-L-threonyl-L-seryl-L-cysteine [Example L-5-F-Trp]	476
C[C@H](N)C(=O)NCC(=O)N[C@H]1CSSC[C@@H](C(=O)O)NC(=O)[C@H](CO)NC(=O)[C@H]([C@@H](C)O)NC(=O)[C@H](Cc2ccccc2)NC(=O)[C@H]([C@@H](C)O)NC(=O)[C@H](CCCCN)NC(=O)[C@@H](Cc2c[nH]c3ccc(F)cc23)NC(=O)[C@H](Cc2ccccc2)NC(=O)[C@H](Cc2ccccc2)NC(=O)[C@H](CC(N)=O)NC(=O)[C@H](CCCCN)NC1=O [Example D-5-F-Trp, cyclic[3-14 disulfide] of L-alanyl-glycyl-L-cysteinyl-L-lysyl-L-asparaginyl-L-phenylalanyl-L-phenylalanyl-D-5-fluorotryptophyl-L-lysyl-L-threonyl-L-phenylalanyl-L-threonyl-L-seryl-L-cysteine]	2499
